pIC50: −log10 of the molar value. Counter-ions that a name gives are not always drawn. Like-named read-outs stand apart in the source and are kept apart here.
How the values were obtained:
[1] = target: T1, NK1 receptor (Cavia porcellus, UniProt P30547); experiment: In vitro NK1 receptor binding ([125I] Bolton Hunter Substance-P, guinea pig cerebral cortex membranes); conditions: [125I-BH]Substance-P 0.1 nM
T1 construct: guinea pig cerebral cortex membranes; from tissue; host or cells: guinea pig cerebral cortex membranes
T1 sequence (P30547 whole entry): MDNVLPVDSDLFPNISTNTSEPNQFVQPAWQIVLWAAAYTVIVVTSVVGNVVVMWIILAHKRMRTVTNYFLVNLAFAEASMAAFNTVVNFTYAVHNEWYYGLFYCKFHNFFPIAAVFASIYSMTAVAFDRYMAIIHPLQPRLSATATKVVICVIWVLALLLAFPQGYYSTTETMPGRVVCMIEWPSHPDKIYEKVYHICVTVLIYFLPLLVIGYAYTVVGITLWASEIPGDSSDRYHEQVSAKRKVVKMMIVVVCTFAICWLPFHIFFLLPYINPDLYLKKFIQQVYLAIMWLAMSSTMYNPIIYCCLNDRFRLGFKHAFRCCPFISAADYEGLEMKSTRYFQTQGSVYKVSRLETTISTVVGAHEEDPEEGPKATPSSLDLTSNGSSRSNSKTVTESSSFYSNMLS
Procedure: The compounds of the invention were also evaluated in three tachykinin binding assays.

[2] = target: T2, NK1 receptor (Guinea Pig Trachea) (Cavia porcellus, UniProt P30547); experiment: NK1 antagonist activity, guinea pig trachea; conditions: read-out: NK1 Antagonist Activity pkB/pA2, Guinea Pig Trachea (converted)
T2 construct: Trachea; from tissue; host or cells: guinea pig trachea
T2 sequence (P30547 whole entry): as above

[3] = target: T1, NK1 receptor; experiment: Guinea pig plasma extravasation (antagonism of SPOMe-induced plasma protein extravasation in the bladder); type: in vivo; conditions: read-out: ID50, Guinea Pig Plasma Extravasation
[4] = target: T3, NK1 receptor (Guinea Pig Ileum) (Cavia porcellus, UniProt P30547); experiment: NK1 antagonist activity, guinea pig ileum; conditions: read-out: NK1 Antagonist Activity pkB/pA2, Guinea Pig Ileum (converted)
T3 construct: Ileum; from tissue; host or cells: guinea pig ileum
T3 sequence (P30547 whole entry): as above

[5] = read-out: Binding IC50, In Vitro NK1 Receptor Binding
[6] = Binding IC50, In Vitro NK1 Receptor Binding
[7] = guinea pig bladder, IV, SPOMe-induced

Row | SMILES | pIC50 [1, 5] | other results
1 | CC(NC(=O)[C@@](C)(Cc1c[nH]c2ccccc12)NC(=O)OCc1ccccc1)c1cc(C(F)(F)F)cc(C(F)(F)F)c1 (mixture of isomers) [Example 39, Phenylmethyl (R,RS)-[2-[[1-[3,5-bis(trifluoromethyl) -phenyl]ethyl]amino]-1-(1H-indol-3-ylmethyl)-1-methyl-2-oxoethyl]carbamate] | 5.00 | –
2 | C[C@H](NC(=O)[C@@](C)(Cc1c[nH]c2ccccc12)NC(=O)OCc1ccco1)c1ccccc1 (relative stereo) [Example 49, 2-Furanylmethyl [R,(R*,S*)]-[1-(1H-indol-3-ylmethyl) -1-methyl-2-oxo-2-[(1-phenylethyl)amino]ethyl]carbamate] | 6.92 | –
3 | Cc1ccc(C(C)NC(=O)[C@@](C)(Cc2c[nH]c3ccccc23)NC(=O)OCc2ccccc2)cc1 (single isomer, unassigned) [Example 36, Phenylmethyl [1-(1H-indol-3-ylmethyl)-1-methyl-2-[[1-(4-methylphenyl)ethyl]amino]-2-oxoethyl]carbamate] | 7.15 | –
4 | Cc1ccc(C(C)NC(=O)[C@@](C)(Cc2c[nH]c3ccccc23)NC(=O)OCc2ccccc2)cc1 (single isomer, unassigned) [Example 37, Phenylmethyl [1-(1H-indol-3-ylmethyl)-1-methyl-2-[[1-(4-methylphenyl)ethyl]amino]-2-oxoethyl]carbamate] | 6.54 | –
5 | CN(Cc1ccccc1)C(=O)C(Cc1c[nH]c2ccccc12)NC(=O)OCc1ccccc1 (stereo not shown) [Example 1] | 6.47 | –
6 | CN(Cc1ccccc1)C(=O)[C@H](Cc1c[nH]c2ccccc12)NC(=O)OCc1ccccc1 [Example 3] | 6.66 | –
7 | CC(NC(=O)C(Cc1c[nH]c2ccccc12)NC(=O)OCc1ccccc1)c1ccccc1 (stereo not shown) [Example 4] | 6.70 | –
8 | C[C@H](NC(=O)[C@@H](Cc1c[nH]c2ccccc12)NC(=O)OCc1ccccc1)c1ccccc1 [Example 6] | 7.12 | –
9 | C[C@H](NC(=O)[C@H](Cc1c[nH]c2ccccc12)NC(=O)OCc1ccccc1)c1ccccc1 [Example 7] | 6.51 | –
10 | C[C@H](NC(=O)[C@](C)(Cc1c[nH]c2ccccc12)NC(=O)OCc1ccccc1)c1ccccc1 [Example 16] | – | pIC50 [1, 6]: 6.15
11 | Cc1ccc(COC(=O)N[C@](C)(Cc2c[nH]c3ccccc23)C(=O)N[C@@H](C)c2ccccc2)cc1 [Example 22] | – | Kb [2]: 100 nM; ED50 ([3]; guinea pig, iv): 0.64 mg/kg; Kb [4]: 15.8 nM; pIC50 [1, 6]: 7.77
12 | CN(C(=O)OCc1ccccc1)[C@@H](Cc1c[nH]c2ccccc12)C(=O)NCc1ccccc1 [Example 23] | 6.77 | –
13 | C[C@H](NC(=O)[C@H](Cc1c[nH]c2ccccc12)N(C)C(=O)OCc1ccccc1)c1ccccc1 [Example 24] | 6.73 | –
14 | C[C@@H](NC(=O)[C@H](Cc1c[nH]c2ccccc12)N(C)C(=O)OCc1ccccc1)c1ccccc1 [Example 27] | 6.51 | –
15 | CN(C(=O)OCc1ccc(Cl)cc1)[C@@H](Cc1c[nH]c2ccccc12)C(=O)NCc1ccccc1 [Example 29] | 6.31 | –
16 | O=C(N[C@@H](Cc1c[nH]c2ccccc12)C(=O)OCc1cc(C(F)(F)F)cc(C(F)(F)F)c1)OCc1ccccc1 [Example 35, Methyl N-[(phenylmethoxy)carbonyl]-, [3,5-bis(trifluoromethyl)phenyl]-L-tryptophan] | 6.63 | –
17 | CC(NC(=O)C(C)(Cc1c[nH]c2ccccc12)NC(=O)OCc1ccccc1)C1CCCCC1 (stereo not drawn) [Example 38, Phenylmethyl [R-(R*,R*)]-(2-[(1-cyclohexyethyl)amino]-1-(1H-indol-3-ylmethyl)-1-methyl-2-oxoethyl]carbamate] | 7.00 | –
18 | COc1ccc(C(C)NC(=O)[C@@](C)(Cc2c[nH]c3ccccc23)NC(=O)OCc2ccccc2)cc1 (stereo partly drawn) [Example 40, Phenylmethyl (R,RS)-[1-(1H, indole-3-ylmethyl)-2-[[1-(4-methoxyphenyl)ethyl]amino]-1-methyl-2-oxoethyl]carbamate] | 6.68 | –

Row | SMILES | pIC50 [1, 5] | other results
19 | C[C@H](NC(=O)[C@@](C)(Cc1c[nH]c2ccccc12)NC(=O)OCc1ccncc1)c1ccccc1 [Example 41] | < 5.00 | –
20 | C[C@H](NC(=O)[C@@](C)(Cc1c[nH]c2ccccc12)NC(=O)OCc1ccsc1)c1ccccc1 [Example 42, 3-Thienylmethyl [R-(R*,S*)]-[(1H-indol-3-ylmethyl) -1-methyl-2-oxo-2-[(1-phenylethyl)amino]ethyl]carbamate] | 6.85 | –
21 | C[C@H](NC(=O)[C@@](C)(Cc1c[nH]c2ccccc12)NC(=O)OCc1cccs1)c1ccccc1 [Example 43, 2-Thienylmethyl [R-(R*,S*)]-[1-(1H-indol-3-ylmethyl) -1-methyl-2-oxo-[(1-phenylethyl)amino]ethyl]carbamate] | 7.00 | –
22 | C[C@H](NC(=O)[C@@](C)(Cc1c[nH]c2ccccc12)NC(=O)OC1CCc2ccccc21)c1ccccc1 (stereo partly drawn) [Example 44, 2,3-Dihydro-1H-inden-3-yl [R-(R*,S*)]-[1(1H-indol-3-ylmethyl)-1-methyl-2-oxo-2-[(phenylethyl)amino]ethyl]carbamate] | 6.96 | –
23 | C[C@H](NC(=O)[C@@](C)(Cc1c[nH]c2ccccc12)NC(=O)OC1Cc2ccccc2C1)c1ccccc1 [Example 46, 2,3-Dihydro-1H-inden-2-yl [1-(1H-indol-3-ylmethyl) -1-methyl-2-oxo-2-[(1-phenylethyl)amino]ethyl]carbamate] | 6.96 | –
24 | C[C@H](NC(=O)[C@@](C)(Cc1c[nH]c2ccccc12)NC(=O)OCc1ccccc1F)c1ccccc1 [Example 47, (2-Fluorophenyl) methyl [R-(R*,S*)]-[1-(1H-insol-3-ylmethyl)-1-methyl-2-oxo-[1-phenylethyl)amino]ethyl]carbamate] | – | Kb [2]: 50.1 nM; ED50 ([3]; guinea pig, iv): 0.13 mg/kg; Kb [4]: 3.98 nM; pIC50 [1, 6]: 8.00
25 | C[C@H](NC(=O)[C@@](C)(Cc1c[nH]c2ccccc12)NC(=O)OCc1ccoc1)c1ccccc1 [Example 48, 3- Furanylmethyl [R-(R*,S*)]-[1-(1H-indol-3-ylmethyl) -1-methyl-2-oxo-2-[(1-phenylethyl)amino]ethyl]carbamate] | 6.64 | –
26 | C[C@H](NC(=O)[C@@](C)(Cc1c[nH]c2ccccc12)NC(=O)OCc1cccc(F)c1)c1ccccc1 [Example 50, (3-Fluorophenyl) methyl [R-(R*,S*)]-[1-(1H-indol-3-ylmethyl)-1-methyl-2-oxo-2-[(1-phenylethyl)amino]ethyl]carbamate] | 6.92 | –
27 | C[C@H](NC(=O)[C@@](C)(Cc1c[nH]c2ccccc12)NC(=O)OCc1ccc(F)cc1)c1ccccc1 [Example 51, (4-Fluorophenyl) methyl [R-(R*,S*)]-[1-(1H-indol-3-ylmethyl)-1-methyl-2-oxo-2-[(1-phenylethyl)amino]ethyl]carbamate] | 6.64 | –
28 | C[C@H](NC(=O)[C@@](C)(Cc1c[nH]c2ccccc12)NC(=O)OCc1cccc(F)c1F)c1ccccc1 [Example 52, (2,3-Difluorophenyl) methyl [R-(R*,S*)]-[(1H-indol-3-methyl)-1-methyl-2-oxo-[(1-phenylethyl)amino]ethyl]carbamate] | 7.31 | –
29 | C[C@H](NC(=O)[C@@](C)(Cc1c[nH]c2ccccc12)NC(=O)OCc1ccc(F)cc1F)c1ccccc1 [Example 53, (2,4-Difluorophenyl) methyl [R-(R*,S*)]-[1-(1H-indol-3-ylmethyl)-1-methyl-2-oxo-2-[(1-phenylethyl)amino]ethyl]carbamate] | – | Kb [2]: 7.94 nM; ED50 ([3]; guinea pig, iv): 0.071 mg/kg; Kb [4]: 2.51 nM; pIC50 [1, 6]: 7.41
30 | C[C@H](NC(=O)C(Cc1n[nH]c2ccccc12)NC(=O)OCc1ccccc1)c1ccccc1 (stereo partly drawn) [Example 55, Phenylmethyl [R-(R*,S*)]and [S-(R*,R*)]-[1-(1H -indazol-3-ylmethyl-)-2-oxo-2-[(1-phenylethyl)amino]ethyl]carbamate] | < 6.00 | –
31 | C[C@H](NC(=O)C(Cc1c[nH]c2ccc(F)cc12)NC(=O)OCc1ccccc1)c1ccccc1 (stereo partly drawn) [Example 56, Phenylmethyl [R-(R*,S*)]and [S-(R*,R*)]-[1-[(5-fluoro-1H-indol-3-yl)methyl]-2-oxo-2-[(1-phenylethyl)amino]ethyl]carbamate] | 5.49 | –
32 | CC(NC(=O)C(Cc1cn(C)c2ccccc12)NC(=O)OCc1ccccc1)c1ccccc1 (stereo not shown) [Example 57, Phenylmethyl [1-(1-methyl-1H-indol-3-ylmethyl]-2-pxp-2-[(1-phenylethyl)amino]ethyl]carbamate] | 5.47 | –
33 | C[C@H](NC(=O)[C@@H](Cc1ccc2ccccc2c1)NC(=O)OCc1ccccc1)c1ccccc1 [Example 58] | 5.77 | –
34 | C[C@H](NC(=O)C(C)(Cc1csc2ccccc12)NC(=O)OCc1ccccc1)c1ccccc1 (stereo partly shown) [Example 60, Phenylmethyl [1-(benzo[b]thien-3-ylmethyl)-1-methyl-2-oxo-2-[(1-phenylethyl)amino]ethyl]carbamate] | < 6.00 | –
35 | C[C@H](NC(=O)[C@@](C)(Cc1c[nH]c2ccccc12)NC(=O)OCc1cc2ccccc2o1)c1ccncc1 [Example 66, Carbamic acid, [1-(1H-indol-3-ylmethyl)-1-methyl-2-oxo-2-[[1-(4-pyridinyl)ethyl]amino]ethyl]-, 2-benzofuranylmethyl ester, monohydrochloride, [R-(R*,S*)]] | – | ED50 [3, 7]: 2.8 mg/kg
36 | CN(Cc1ccccc1)C(=O)[C@H](Cc1c[nH]c2ccccc12)NC(=O)OCc1cc2ccccc2o1 [Example 67, Carbamic acid, [1-(1H-indol-3-ylmethyl)-2-[methyl (phenylmethyl)amino]-2-oxoethyl]-, 2-benzofuranylmethyl ester, (S)--] | – | ED50 [3, 7]: 0.91 mg/kg; Kb [4]: 12.6 nM
